Reference: patent publication US8207191B2, “Process, salts, composition and use” (Glaxo Group Limited, priority 2003, dated 2012)

How the values were obtained:
[1] = solid-state properties of the crystalline salt (stability, hygroscopicity); type: physicochemical
[2] = applied as a suitable topical formulation

- hygroscopicity of the crystalline form [1]: non-hygroscopic
- stability of the crystalline form [1]: stable
SMILES: C=CC1(C)CC(OC(=O)CSC2CC3CCC(C2)N3C)C2(C)C(C)CCC3(CCC(=O)C32)C(C)C1O.O=C(O)CCC(=O)O (stereo not drawn) [hydrosuccinate salt, hydrosuccinate salt of mutilin 14-(exo-8-methyl-8-azabicyclo[3.2.1]oct-3-ylsulfanyl)-acetate]
- irritation [2]: does not cause significant irritation
